Target: NQO1 protein (Homo sapiens, UniProt P15559)
Test: In vitro NQO1 enzyme activity assay (cytochrome C reduction, absorbance at 550 nm)
Format: biochemical
Details: NQO1 2 ng
Protocol: In order to evaluate the activity of the synthesized compound in NQO1, the experiments were performed as follows:
The synthesized compound was dissolved in DMSO to make a 10 mM stock solution, which was further diluted with DMSO to 250 μM so as to prepare a working solution. For experimental groups, the working solution of the compound was added to an enzyme reaction solution in which 50 μL of 1.54 mM Cytochrome C solution was added to 900 μL of 50 mM Tris-HCl (pH7.5) containing 0.14% BSA. For negative control groups, DMSO not containing the compound of the invention was added to the enzyme reaction solution as above. For each experimental and control group, 20 μL of 100 ng/mL NQO1 protein was added, and then 10 μL of 20 mM NADH was added to bring up the total volume to 1 mL. The change of absorbance was measured at 550 nm for 10 minutes using 1 mL cuvette. The kinetics of reaction was measured by the increase of absorbance as the cytochrome C was reduced at 550 nm over 10 minutes. The activity of NQO1 was measured by the amount of cytochrome C that is being reduced (nmol cytochrome C that was reduced/min/ug NQO1 protein). • Absorption coefficient of Cytochrome C: 21.1 (μmol/mL)^−1cm^−1 • BSA: Bovine Serum Albumin • […]: Tris(hydroxymethyl)aminomethane hydrochloride (buffer solution) • Equipment=Cary 100 UV-Vis Spectrophotometer • The results are shown in Tables 1 to 8.

Sequence of NQO1 protein (P15559 whole entry, species assumed): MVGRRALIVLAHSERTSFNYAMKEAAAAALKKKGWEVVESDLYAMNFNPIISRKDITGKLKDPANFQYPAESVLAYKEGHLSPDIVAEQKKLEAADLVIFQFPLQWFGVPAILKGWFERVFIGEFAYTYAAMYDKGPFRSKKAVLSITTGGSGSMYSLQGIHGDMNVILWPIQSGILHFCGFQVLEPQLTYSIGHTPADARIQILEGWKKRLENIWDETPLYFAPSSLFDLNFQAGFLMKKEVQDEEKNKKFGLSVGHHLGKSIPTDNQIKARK

**Q.** With Cc1nn(-c2ccc(F)cc2F)c2c1C(=O)C(=O)c1ccccc1-2 [Compound 32, 1-(2,4-Difluorophenyl)-3-methyl-1H-benzo[g]indazol-4,5-dione] as the compound, how does the “NQO1 activity assay Cytochrome C reduced/min/μg NQO1 protein” value (10 nM Compound (Table 1)) read?
**A.** Its value is 839 nmol cytochrome C that was reduced/min/ug NQO1 protein.

**Q.** How did the “NQO1 activity assay Cytochrome C reduced/min/μg NQO1 protein” value (10 nM Compound (Table 1)) turn out when O=C1C(=O)c2cnn(-c3ccccc3)c2-c2ccccc21 [Compound 33, 1-Phenyl-1H-benzo[g]indazol-4,5-dione] was run?
**A.** The value was 436 nmol cytochrome C that was reduced/min/ug NQO1 protein.

**Q.** Which “NQO1 activity assay Cytochrome C reduced/min/μg NQO1 protein” value (10 nM Compound (Table 1)) does the source give for O=C1C(=O)c2c(C(F)(F)F)nn(-c3ccccc3)c2-c2ccccc21 [Compound 34, 1-Phenyl-3-(trifluoromethyl)-1H-benzo[g]indazol-4,5-dione] here?
**A.** Its value is 716 nmol cytochrome C that was reduced/min/ug NQO1 protein.

**Q.** Cc1nn(-c2ccccc2)c2c1C(=O)C(=O)c1cc(F)ccc1-2 [Compound 35, 7-Fluoro-3-methyl-1-phenyl-1H-benzo[g]indazol-4,5-dione] was tested. Which “NQO1 activity assay Cytochrome C reduced/min/μg NQO1 protein” value (10 nM Compound (Table 1)) did it give?
**A.** The value was 694 nmol cytochrome C that was reduced/min/ug NQO1 protein.

**Q.** Cc1nn(-c2cc(Cl)cc(Cl)c2)c2c1C(=O)C(=O)c1ccccc1-2 [Compound 36, 1-(3,5-Dichlorophenyl)-3-methyl-1H-benzo[g]indazol-4,5-dione] was tested. Which “NQO1 activity assay Cytochrome C reduced/min/μg NQO1 protein” value (50 nM Compound (Table 2)) did it give?
**A.** The value was 1873 nmol cytochrome C that was reduced/min/ug NQO1 protein.

**Q.** Cc1nn(-c2ccc(C(=O)O)cc2)c2c1C(=O)C(=O)c1ccccc1-2 [Compound 37, 4-(3-Methyl-4,5-dioxo-4,5-dihydro-1H-benzo[g]indazol-1-yl)benzoic acid] was tested. Which “NQO1 activity assay Cytochrome C reduced/min/μg NQO1 protein” value (50 nM Compound (Table 2)) did it give?
**A.** The value was 1034 nmol cytochrome C that was reduced/min/ug NQO1 protein.

**Q.** Cc1nn(-c2cccc3ccccc23)c2c1C(=O)C(=O)c1ccccc1-2 [Compound 38, 3-Methyl-1-(naphthalen-1-yl)-1H-benzo[g]indazol-4,5-dione] was tested. Which “NQO1 activity assay Cytochrome C reduced/min/μg NQO1 protein” value (50 nM Compound (Table 4)) did it give?
**A.** The value was 2696 nmol cytochrome C that was reduced/min/ug NQO1 protein.

**Q.** Which “NQO1 activity assay Cytochrome C reduced/min/μg NQO1 protein” value (50 nM Compound (Table 4)) does the source give for Cc1nn(-c2cncc(Cl)c2)c2c1C(=O)C(=O)c1ccccc1-2 [Compound 39, 1-(5-Chloropyridin-3-yl)-3-methyl-1H-benzo[g]indazol-4,5-dione] here?
**A.** Its value is 3285 nmol cytochrome C that was reduced/min/ug NQO1 protein.

**Q.** For Cc1nn(-c2nccs2)c2c1C(=O)C(=O)c1ccccc1-2 [Compound 40, 3-Methyl-1-(thiazol-2-yl)-1H-benzo[g]indazol-4,5-dione], which “NQO1 activity assay Cytochrome C reduced/min/μg NQO1 protein” value (50 nM Compound (Table 3)) is on record?
**A.** The value was 2041 nmol cytochrome C that was reduced/min/ug NQO1 protein.

**Q.** For Cc1nn(-c2ccncc2)c2c1C(=O)C(=O)c1ccccc1-2 [Compound 41, 3-Methyl-1-(pyridin-4-yl)-1H-benzo[g]indazol-4,5-dione], which “NQO1 activity assay Cytochrome C reduced/min/μg NQO1 protein” value (50 nM Compound (Table 3)) is on record?
**A.** Its value is 1617 nmol cytochrome C that was reduced/min/ug NQO1 protein.

**Q.** Cc1c2c(nn1-c1ccncc1)-c1ccccc1C(=O)C2=O [Compound 42, 3-Methyl-2-(pyridin-4-yl)-2H-benzo[g]indazol-4,5-dione] was tested. Which “NQO1 activity assay Cytochrome C reduced/min/μg NQO1 protein” value (50 nM Compound (Table 3)) did it give?
**A.** The value was 3212 nmol cytochrome C that was reduced/min/ug NQO1 protein.

**Q.** Which “NQO1 activity assay Cytochrome C reduced/min/μg NQO1 protein” value (50 nM Compound (Table 2)) does the source give for Cc1n[nH]c2c1C(=O)C(=O)c1ccccc1-2 [Compound 43, 3-Methyl-1H-benzo[g]indazol-4,5-dione] here?
**A.** The value was 1008 nmol cytochrome C that was reduced/min/ug NQO1 protein.

**Q.** For Cc1c2c(nn1S(=O)(=O)c1ccccc1)-c1ccccc1C(=O)C2=O [Compound 44, 3-Methyl-2-(phenylsulfonyl)-2H-benzo[g]indazol-4,5-dione], which “NQO1 activity assay Cytochrome C reduced/min/μg NQO1 protein” value (50 nM Compound (Table 3)) is on record?
**A.** The value was 2169 nmol cytochrome C that was reduced/min/ug NQO1 protein.

**Q.** With Cc1c2c(nn1S(=O)(=O)c1ccc(F)cc1)-c1ccccc1C(=O)C2=O [Compound 45, 3-Methyl-2-(4-Fluorophenylsulfonyl)-2H-benzo[g]indazol-4,5-dione] as the compound, how does the “NQO1 activity assay Cytochrome C reduced/min/μg NQO1 protein” value (50 nM Compound (Table 5)) read?
**A.** The value was 2092 nmol cytochrome C that was reduced/min/ug NQO1 protein.

**Q.** Cc1c2c(nn1S(=O)(=O)c1ccccc1Cl)-c1ccccc1C(=O)C2=O [Compound 46, 2-(2-Chlorophenylsulfonyl)-3-methyl-2H-benzo[g]indazol-4,5-dione] was tested. Which “NQO1 activity assay Cytochrome C reduced/min/μg NQO1 protein” value (50 nM Compound (Table 5)) did it give?
**A.** Its value is 1522 nmol cytochrome C that was reduced/min/ug NQO1 protein.

**Q.** Which “NQO1 activity assay Cytochrome C reduced/min/μg NQO1 protein” value (50 nM Compound (Table 5)) does the source give for Cc1c2c(nn1S(=O)(=O)c1cccc(Cl)c1)-c1ccccc1C(=O)C2=O [Compound 47, 2-(3-Chlorophenylsulfonyl)-3-methyl-2H-benzo[g]indazol-4,5-dione] here?
**A.** Its value is 1277 nmol cytochrome C that was reduced/min/ug NQO1 protein.

**Q.** Cc1c2c(nn1S(=O)(=O)c1cccnc1)-c1ccccc1C(=O)C2=O [Compound 48, 3-Methyl-2-(pyridin-3-ylsulfonyl)-2H-benzo[g]indazol-4,5-dione] was tested. Which “NQO1 activity assay Cytochrome C reduced/min/μg NQO1 protein” value (50 nM Compound (Table 5)) did it give?
**A.** Its value is 1749 nmol cytochrome C that was reduced/min/ug NQO1 protein.

**Q.** For Cc1c2c(nn1S(=O)(=O)c1ccc(Cl)cc1)-c1ccccc1C(=O)C2=O [Compound 49, 2-(4-Chlorophenylsulfonyl)-3-methyl-2H-benzo[g]indazol-4,5-dione], which “NQO1 activity assay Cytochrome C reduced/min/μg NQO1 protein” value (50 nM Compound (Table 6)) is on record?
**A.** The value was 2171 nmol cytochrome C that was reduced/min/ug NQO1 protein.

**Q.** Cc1ccc(S(=O)(=O)n2nc3c(c2C)C(=O)C(=O)c2ccccc2-3)cc1 [Compound 50, 3-Methyl-2-tosyl-2H-benzo[g]indazol-4,5-dione] was tested. Which “NQO1 activity assay Cytochrome C reduced/min/μg NQO1 protein” value (50 nM Compound (Table 6)) did it give?
**A.** The value was 1542 nmol cytochrome C that was reduced/min/ug NQO1 protein.

**Q.** With COc1ccc(S(=O)(=O)n2nc3c(c2C)C(=O)C(=O)c2ccccc2-3)cc1 [Compound 51, 2-(4-Methoxyphenylsulfonyl)-3-methyl-2H-benzo[g]indazol-4,5-dione] as the compound, how does the “NQO1 activity assay Cytochrome C reduced/min/μg NQO1 protein” value (50 nM Compound (Table 6)) read?
**A.** Its value is 1288 nmol cytochrome C that was reduced/min/ug NQO1 protein.

**Q.** Which “NQO1 activity assay Cytochrome C reduced/min/μg NQO1 protein” value (50 nM Compound (Table 7)) does the source give for COC(=O)c1ccc(S(=O)(=O)n2nc3c(c2C)C(=O)C(=O)c2ccccc2-3)cc1 [Compound 52, Methyl 4-(3-methyl-4,5-dioxo-4,5-dihydro-2H-benzo[g]indazol-2-ylsulfonyl)benzoate] here?
**A.** Its value is 2179 nmol cytochrome C that was reduced/min/ug NQO1 protein.

**Q.** Which “NQO1 activity assay Cytochrome C reduced/min/μg NQO1 protein” value (50 nM Compound (Table 7)) does the source give for Cc1c2c(nn1S(=O)(=O)C1CC1)-c1ccccc1C(=O)C2=O [Compound 53, 2-(Cyclopropylsulfonyl)-3-methyl-2H-benzo[g]indazol-4,5-dione] here?
**A.** The value was 1549 nmol cytochrome C that was reduced/min/ug NQO1 protein.

**Q.** For Cc1c2c(nn1S(=O)(=O)C1CCCC1)-c1ccccc1C(=O)C2=O [Compound 54, 2-(Cyclopentylsulfonyl)-3-methyl-2H-benzo[g]indazol-4,5-dione], which “NQO1 activity assay Cytochrome C reduced/min/μg NQO1 protein” value (50 nM Compound (Table 7)) is on record?
**A.** Its value is 1295 nmol cytochrome C that was reduced/min/ug NQO1 protein.

**Q.** For Cc1c2c(nn1S(=O)(=O)c1ccc(C#N)cc1)-c1ccccc1C(=O)C2=O [Compound 55, 4-(3-Methyl-4,5-dioxo-4,5-dihydro-2H-benzo[g]indazol-2-ylsulfonyl)benzonitrile], which “NQO1 activity assay Cytochrome C reduced/min/μg NQO1 protein” value (50 nM Compound (Table 7)) is on record?
**A.** The value was 1892 nmol cytochrome C that was reduced/min/ug NQO1 protein.

**Q.** Which “NQO1 activity assay Cytochrome C reduced/min/μg NQO1 protein” value (50 nM Compound (Table 7)) does the source give for Cc1c2c(nn1S(=O)(=O)c1ccc([N+](=O)[O-])cc1)-c1ccccc1C(=O)C2=O [Compound 56, 3-Methyl-2-(4-nitrophenylsulfonyl)-2H-benzo[g]indazol-4,5-dione] here?
**A.** Its value is 1839 nmol cytochrome C that was reduced/min/ug NQO1 protein.

**Q.** How did the “NQO1 activity assay Cytochrome C reduced/min/μg NQO1 protein” value (50 nM Compound (Table 7)) turn out when Cc1c2c(nn1S(=O)(=O)c1ccc(C(F)(F)F)cc1)-c1ccccc1C(=O)C2=O [Compound 57, 3-Methyl-2-(4-(trifluoromethyl)phenylsulfonyl)-2H-benzo[g]indazol-4,5-dione] was run?
**A.** Its value is 1868 nmol cytochrome C that was reduced/min/ug NQO1 protein.

**Q.** How did the “NQO1 activity assay Cytochrome C reduced/min/μg NQO1 protein” value (50 nM Compound (Table 8)) turn out when Cc1c2c(nn1S(=O)(=O)c1ccc(F)c(F)c1)-c1ccccc1C(=O)C2=O [Compound 58, 2-(3,4-Difluorophenylsulfonyl)-3-methyl-2H-benzo[g]indazol-4,5-dione] was run?
**A.** The value was 1913 nmol cytochrome C that was reduced/min/ug NQO1 protein.

**Q.** Cc1c2c(nn1S(=O)(=O)c1ccc(F)cc1F)-c1ccccc1C(=O)C2=O [Compound 59, 2-(2,4-Difluorophenylsulfonyl)-3-methyl-2H-benzo[g]indazol-4,5-dione] was tested. Which “NQO1 activity assay Cytochrome C reduced/min/μg NQO1 protein” value (50 nM Compound (Table 8)) did it give?
**A.** The value was 1923 nmol cytochrome C that was reduced/min/ug NQO1 protein.

**Q.** How did the “NQO1 activity assay Cytochrome C reduced/min/μg NQO1 protein” value (50 nM Compound (Table 8)) turn out when Cc1c2c(nn1S(=O)(=O)c1cccc3cccnc13)-c1ccccc1C(=O)C2=O [Compound 60, 3-Methyl-2-(quinolin-8-ylsulfonyl)-2H-benzo[g]indazol-4,5-dione] was run?
**A.** Its value is 2692 nmol cytochrome C that was reduced/min/ug NQO1 protein.

**Q.** How did the “NQO1 activity assay Cytochrome C reduced/min/μg NQO1 protein” value (50 nM Compound (Table 8)) turn out when Cc1c2c(nn1S(=O)(=O)c1nccn1C)-c1ccccc1C(=O)C2=O [Compound 61, 3-Methyl-2-(1-methyl-1H-imidazol-2-ylsulfonyl)-2H-benzo[g]indazol-4,5-dione] was run?
**A.** Its value is 2289 nmol cytochrome C that was reduced/min/ug NQO1 protein.

**Q.** Which “NQO1 activity assay Cytochrome C reduced/min/μg NQO1 protein” value (50 nM Compound (Table 8)) does the source give for Cc1c2c(nn1S(=O)(=O)N1CCOCC1)-c1ccccc1C(=O)C2=O [Compound 62, 3-Methyl-2-(morpholinosulfonyl)-2H-benzo[g]indazol-4,5-dione] here?
**A.** Its value is 1916 nmol cytochrome C that was reduced/min/ug NQO1 protein.

**Q.** For Cc1nn(Cc2ccccc2)c2c1C(=O)C(=O)c1ccccc1-2 [Compound 63, 1-Benzyl-3-methyl-1H-benzo[g]indazol-4,5-dione], which “NQO1 activity assay Cytochrome C reduced/min/μg NQO1 protein” value (50 nM Compound (Table 2)) is on record?
**A.** The value was 1567 nmol cytochrome C that was reduced/min/ug NQO1 protein.

— patent US12570613B2, “Imidazoquinoline or benzoindazolone compound and intermediate for preparing same” (LMITO THERAPEUTICS INC., priority 2020, dated 2026)
